Test results: patent US9056835B2, “LPA2 receptor-specific benzoic acid derivatives” (University of Tennessee Research Foundation, priority 2012, dated 2015)

How the values were obtained:
[1] = test system: vector- and LPA2-transduced MEF cells; experiment: Serum withdrawal-induced apoptosis (caspase activity, DNA fragmentation); format: cell-based, mouse; conditions: for reduction of apoptotic indicators: vector-transduced MEF
Description: (§1) Experiments were performed on vector- and LPA2-transduced MEF cells. To measure caspase 3, 7, 8, or 9 activity and DNA fragmentation, cells were plated in 48-well plates (2×10^4 cells/well). To detect PARP-1 cleavage and Bax translocation, 1.5×10^6 cells were plated in 10-cm dishes and cultured overnight in full growth medium. The next morning, the growth medium was replaced by serum-starvation medium and cells were pretreated for 1 h with LPA (1-10 μM), OTP (1-10 μM), GRI977143 (1-10 μM), or vehicle. Caspase activity, DNA fragmentation, PARP-1 cleavage, and Bax translocation were measured 5 h after incubation with 1.7 μM Adriamycin or 24 h after serum withdrawal.
Caspase-Glow® 3/7, Caspase-Glow® 8 and Caspase-Glow® 9 reagents were purchased from Promega (Madison, Wis.) and used according to the manufacturer's instructions. Briefly, cells were lysed by adding 50 μl of lysis reagent per well, followed by shaking for 30 min at room temperature. […] lysate were transferred to a 96-well white-wall plate, and luminescence was measured using a BioTek® (Winooski, Vt.) plate reader.
(§2) Apoptotically-challenged cells were washed twice with PBS, and a quantitative DNA fragmentation assay was carried out using a Cell Death Detection ELISA PLUS kit (Roche Diagnostics, Penzberg, Germany) and normalized to protein concentration using the BCA Protein Assay Kit (Thermo Fisher Scientific, Inc.; Rockford, Ill.) as described previously (Valentine et al., 2010). Aliquots of nuclei-free cell lysate were placed in streptavidin-coated wells and incubated with anti-histone-biotin antibody and anti-DNA peroxidase-conjugated antibody for 2 h at room temperature. After the incubation, the sample was removed, and the wells were washed and incubated with 100 μl 2,2′-azino-di[3-ethylbenzthiazolin-sulfonate substrate at room temperature before the absorbance was read at 405 nm. Results were expressed as absorbance at 405 nm/min/mg protein as detailed in our previous report (Ray et al., Mdm2 inhibition induces apoptosis in p53 deficient human colon cancer cells by activating p73- and E2F1-mediated expression of PUMA and Siva-1. Apoptosis (2011) 16(1): 35-44).

LPA1 = biological target: T1, LPA1 (Homo sapiens, UniProt Q92633); experiment: LPA receptor-mediated Ca2+ mobilization assay, LPA1; format: cell-based; conditions: for EC50: agonist, Ca2+ mobilization; for inhibition of LPA1 Ca2+ response: 10 μM, ~EC75 LPA 18:1; for LPA1 Imax (%): inhibition by 10 μM compound of ~EC75 LPA 18:1 Ca2+ response
T1 construct: expressed in transfected cells
Description: Similarity searches were performed separately using each fingerprint to quantitate similarity. Hits meeting the 80% similarity threshold from each search were ranked based on the Tanimoto coefficient measure of similarity to a target molecule NSC12404, and the top 75 unique hits from each fingerprint search were selected for further analysis. The 225 compounds selected for further analysis were clustered based on Tanimoto coefficients calculated using Molecular ACCess System-key fingerprints (MACCS keys) and evaluated using the diversity subset function implemented in MOE. This selected a diverse subset of 27 compounds for biological evaluation by choosing the middle compounds in each cluster. These 27 compounds were tested in Ca^2+ mobilization assays at a concentration of 10 μM using stable cell lines individually expressing LPA2 and also in vector-transfected control cells. Hits activating LPA2 were further tested using cells expressing the other established and putative LPA GPCRs. Experimental testing of the selected compounds identified the three new selective LPA2 agonists: GRI977143, H2L5547924, and H2L5828102. […] They arbitrarily selected GRI977143 for further characterization in cell-based assays.
J Biol Chem (2009) 284(25): 17304-17319). […] The cells were loaded with Fura-2-acetoxymethyl esther (Fura-2/AM) in Krebs buffer containing 0.01% pluronic acid for 30 min and rinsed with Krebs buffer before measuring Ca^2+ mobilization. The ratio of peak emissions at 510 nm after 2 min of ligand addition was determined for excitation wavelengths of 340 nm/380 nm. All samples were run in quadruplicate. […] The half maximally effective concentration (EC50), and inhibitory constant (Ki) values were calculated by fitting a sigmoid function to dose-response data points using KaleidaGraph software (version 4.1, Synergy Software; […]).
Mouse embryonic fibroblast (MEF) cells were isolated from E13.5 LPA1&2 double knockout (DKO) embryos. MEFs were transduced with empty vector or LPA2-containing lentiviruses and selected with 1.5 μg/ml puromycin. Cells were maintained in Dulbecco's modified Eagle medium (DMEM) supplemented with 10% (V/V) fetal bovine serum (FBS), 2 mM L-glutamine, 100 U/mL penicillin, and 100 μg/mL streptomycin. Serum-free medium contained 0.1% (W/V) BSA in DMEM. The rat intestinal epithelial cell line 6 (IEC-6) was obtained from the American Type Culture Collection (Rockville, Md.) at passage 13; passages 16-21 were used in all experiments. IEC-6 cells were maintained in a humidified 37° C. incubator in an atmosphere of 90% air and 10% CO2. Growth medium consisted of DMEM supplemented with 5% heat inactivated FBS, 10 μg/mL insulin, and 50 μg/mL gentamycin. The composition of the serum-starvation medium was the same as that of the full growth medium except that it contained no FBS. The McArdle rat hepatoma cell line (RH7777) stably expressing LPA2 receptors was a gift from Dr. Fumikazu Okajima (Gunma University, Maebashi, Japan). RH7777 cells stably expressing LPA1 or LPA3 receptors were generated in-house and had been characterized earlier. Wild type and LPA receptor (LPAR) stably transfected RH7777 cells were grown in DMEM supplemented with 10% FBS and 2 mM L-glutamine in the presence of 250 μg/ml G418. Chinese hamster ovary (CHO) cells stably expressing either vector or LPA4 receptor were a kind gift from Dr. Takao Shimizu (Tokyo University; Tokyo, Japan). Cells were cultured in Ham's F12 medium containing 10% FBS, 2 mM L-glutamine, and 350 μg/ml G418. Rat neuroblastoma cells (B103) were transduced with the lentivirus harboring wild type of FLAG-LPA5 and selected with puromycin to establish the stable cell lines. The stable cells were maintained in DMEM supplemented with 10% FBS and 0.4 μg/ml puromycin. GPR87- and P2Y10-expressing CHO cells and vector-transfected control cells were a gift from Dr. Norihisha Fujita (Ritsumeikan University; Shiga, Japan). […]

[2] = test system: vector- and LPA2-transduced MEF cells; experiment: Adriamycin-induced apoptosis, DNA fragmentation ELISA; format: cell-based, mouse; conditions: GRI977143 10 μM
Description: as §1, §2

[3] = LPA2-transduced MEF, LPA and OTP 3 μM

T1 sequence (Q92633 whole entry, species assumed): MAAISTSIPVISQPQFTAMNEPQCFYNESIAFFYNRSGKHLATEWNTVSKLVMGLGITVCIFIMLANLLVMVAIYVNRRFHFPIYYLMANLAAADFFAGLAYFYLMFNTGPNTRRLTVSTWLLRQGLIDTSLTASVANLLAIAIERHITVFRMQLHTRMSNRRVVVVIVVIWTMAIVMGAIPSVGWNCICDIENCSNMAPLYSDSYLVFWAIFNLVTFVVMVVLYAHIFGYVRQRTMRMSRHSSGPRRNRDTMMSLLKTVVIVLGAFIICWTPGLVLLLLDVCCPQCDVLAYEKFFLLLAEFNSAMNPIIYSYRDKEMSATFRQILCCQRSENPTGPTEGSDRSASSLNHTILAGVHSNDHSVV

CCCCCCCC/C=C\CCCCCCCC(=O)OC[C@@H](O)COP(=O)(O)O [LPA 18:1, Lysophosphatidic acid (18:1)]
reduction of apoptotic indicators [1]: protected the vector-transduced MEF cells too
EC50 (LPA1): 130 nM
reduction of DNA fragmentation [2, 3]: 35±4%

O=C(O)c1cc(Cl)c(Cl)cc1C(=O)Nc1ccc2c(c1)C(=O)c1ccccc1-2 [Compound H2L5547924]
inhibition of LPA1 Ca2+ response (LPA1): partially inhibited
LPA1 Imax (%) (LPA1): 21%

O=C(O)c1ccccc1C(=O)Nc1ccc2c(c1)C(=O)c1ccccc1C2=O [Compound H2L5828102]
inhibition of LPA1 Ca2+ response (LPA1): partially inhibited
LPA1 Imax (%) (LPA1): 29%

O=C(O)c1ccccc1C(=O)Nc1ccc2c(c1)C(=O)c1ccccc1-2 [NSC12404]
EC50 (LPA1): > 10000 nM

O=C(O)c1ccccc1SCCCN1C(=O)c2cccc3cccc(c23)C1=O [GRI977143]
DNA fragmentation ([1]; LPA2-transduced MEF, 10 μM): attenuated DNA fragmentation
reduction of caspase 3, 7, 8, and 9 activation ([1]; LPA2-transduced MEF, 10 μM): highly effective
reduction of apoptotic indicators [1]: failed to cause any reduction
reduction of DNA fragmentation [2, 3]: 41±2%
reduction of DNA fragmentation ([2]; vector-transduced MEF): 7±1%

octadecenyl thiophosphate [OTP]
reduction of apoptotic indicators [1]: protected the vector-transduced MEF cells too
EC50 (LPA1): 651 nM
reduction of DNA fragmentation [2, 3]: 32±1%
